Laboratory results from PubChem BioAssay (NCI).
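Each compound was tested at five concentrations against cells in 96-well plates for 48 hours. At the TGI there is no net growth.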

How the values were obtained:
Assay in all cases: NCI-60 cell line screen, 48 h
786-0 renal = test system: 786-0 renal
A498 renal = test system: A498 renal
A549 NSCLC = test system: A549 NSCLC
ACHN renal = test system: ACHN renal
CAKI-1 renal = test system: CAKI-1 renal
CCRF-CEM leukemia = test system: CCRF-CEM leukemia
COLO 205 colon = test system: COLO 205 colon
DLD-1 colon = test system: DLD-1 colon
DMS 114 small cell lung = test system: DMS 114 small cell lung
DMS 273 small cell lung = test system: DMS 273 small cell lung
EKVX NSCLC = test system: EKVX NSCLC
HCC-2998 colon = test system: HCC-2998 colon
HCT-116 colon = test system: HCT-116 colon
HCT-15 colon = test system: HCT-15 colon
HL-60(TB) leukemia = test system: HL-60(TB) leukemia
HOP-18 NSCLC = test system: HOP-18 NSCLC
HOP-62 NSCLC = test system: HOP-62 NSCLC
HOP-92 NSCLC = test system: HOP-92 NSCLC
HT29 colon = test system: HT29 colon
IGROV1 ovarian = test system: IGROV1 ovarian
KM12 colon = test system: KM12 colon
KM20L2 colon = test system: KM20L2 colon
LOX IMVI melanoma = test system: LOX IMVI melanoma
M14 melanoma = test system: M14 melanoma
M19-MEL melanoma = test system: M19-MEL melanoma
MALME-3M melanoma = test system: MALME-3M melanoma
MOLT-4 leukemia = test system: MOLT-4 leukemia
NCI-H226 lung = test system: NCI-H226 lung
NCI-H460 lung = test system: NCI-H460 lung
NCI-H522 lung = test system: NCI-H522 lung
OVCAR-3 ovarian = test system: OVCAR-3 ovarian
OVCAR-4 ovarian = test system: OVCAR-4 ovarian
OVCAR-5 ovarian = test system: OVCAR-5 ovarian
OVCAR-8 ovarian = test system: OVCAR-8 ovarian
RPMI-8226 leukemia = test system: RPMI-8226 leukemia
RXF 393 renal = test system: RXF 393 renal
RXF-631 renal = test system: RXF-631 renal
SF-268 CNS = test system: SF-268 CNS
SF-295 CNS = test system: SF-295 CNS
SF-539 CNS = test system: SF-539 CNS
SK-MEL-28 melanoma = test system: SK-MEL-28 melanoma
SK-MEL-5 melanoma = test system: SK-MEL-5 melanoma
SK-OV-3 ovarian = test system: SK-OV-3 ovarian
SN12C renal = test system: SN12C renal
SNB-19 CNS = test system: SNB-19 CNS
SNB-75 CNS = test system: SNB-75 CNS
SNB-78 CNS = test system: SNB-78 CNS
SR leukemia = test system: SR leukemia
SW-620 colon = test system: SW-620 colon
TK-10 renal = test system: TK-10 renal
U251 CNS = test system: U251 CNS
UACC-257 melanoma = test system: UACC-257 melanoma
UACC-62 melanoma = test system: UACC-62 melanoma
UO-31 renal = test system: UO-31 renal
K-562 leukemia = test system: K-562 leukemia
LXFL 529 NSCLC = test system: LXFL 529 NSCLC
NCI-H23 lung = test system: NCI-H23 lung
SK-MEL-2 melanoma = test system: SK-MEL-2 melanoma
XF 498 CNS = test system: XF 498 CNS

Measured: TGI

C=CCC1(C)CCCCC1(O)CS(=O)c1ccccc1 (configuration not stated)
not listed: K-562 leukemia | LXFL 529 NSCLC | NCI-H23 lung | SK-MEL-2 melanoma | XF 498 CNS
> 100 µM: all other assays above

N#Cc1c(-c2ccco2)cc(-c2ccc(N)cc2)[nH]c1=O
not listed: CAKI-1 renal | COLO 205 colon | M19-MEL melanoma | SNB-78 CNS | SK-MEL-2 melanoma | XF 498 CNS
> 100 µM: all other assays above

CC(=O)O[C@]12CCCCCC1C1(O)C(O)CCCCC12 (some centres not stated)
not listed: A498 renal | CAKI-1 renal | DLD-1 colon | HCC-2998 colon | HCT-116 colon | HOP-18 NSCLC | HOP-92 NSCLC | IGROV1 ovarian | OVCAR-3 ovarian | OVCAR-5 ovarian | RXF-631 renal | SF-539 CNS
> 100 µM: all other assays above

CC12CCC(=O)N1c1cccnc1N2 (configuration not stated)
not listed: DMS 273 small cell lung | HCT-116 colon | HOP-18 NSCLC | RXF-631 renal | SNB-19 CNS | SR leukemia
> 100 µM: all other assays above
